# Assay results as given in patent US20260265244A1, “HETEROCYCLIC COMPOUNDS AS STING ANTAGONISTS” (Boehringer Ingelheim International GmbH, priority 2022, published 2026).
# Molecular target: T1, cGAMP binding domain of wild-type (GRR) human STING, residues 155-341 (Homo sapiens, UniProt Q86WV6, H232R)
# T1 construct: His-TEV-hSTING (WT); TEV protease cleavage site (N); made in house; host or cells: E. coli BL21 DE3
# Test: Increase of stability of STING protein against thermal denaturation, Differential Scanning Fluorimetry (DSF)
# Summary of the method: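 3 µM His-tagged protein with 100 uM compound, 5×SYPRO Orange, 2% DMSO in 20 mM Tris, 150 mM NaCl, pH7.5; 15–95 °C ramp in 0.5 °C steps (15 s/cycle). Tm from Boltzmann fit of the dye melt curve, duplicates averaged, repeated if SD>1.5 °C; ΔTm = Tm with compound minus Tm of protein alone.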
# T1 sequence (Q86WV6 with tags, fused parts or gaps H232R): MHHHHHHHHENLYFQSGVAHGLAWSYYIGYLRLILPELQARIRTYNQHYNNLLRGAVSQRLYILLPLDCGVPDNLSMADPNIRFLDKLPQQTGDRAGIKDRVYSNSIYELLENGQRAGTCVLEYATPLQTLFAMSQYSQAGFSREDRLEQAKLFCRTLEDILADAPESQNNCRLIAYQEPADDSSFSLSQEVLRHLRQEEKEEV
row,Structure (SMILES),DSF [K]
1,"Cn1cc2cc(-c3nc(-c4cccc5nn(C[C@H](O)c6ccccc6)cc45)c(C4CC4)n3C)c(OC(F)F)cc2n1 [Example 34, (1R)-2-(4-{5-cyclopropyl-2-[6-(difluoromethoxy)-2-methyl-2H-indazol-5-yl]-1-methyl-1H-imidazol-4-yl}-2H-indazol-2-yl)-1-phenylethan-1-ol]",29
2,"Cc1c(C2CC2)c(-c2c(F)ccc3nn(C[C@H](O)c4ccccc4)cc23)nn1-c1cc2cn(C)nc2nc1C1CC1 [Example 35, (1R)-2-[4-(4-cyclopropyl-1-{6-cyclopropyl-2-methyl-2H-pyrazolo[3,4-b]pyridin-5-yl}-5-methyl-1H-pyrazol-3-yl)-5-fluoro-2H-indazol-2-yl]-1-phenylethan-1-ol]",29
3,"CNC(=O)CO[C@@H](Cn1cc2c(-c3nn(-c4cc5cn(C)nc5nc4C)c(C)c3C(C)C)cccc2n1)c1ccccc1 [Example 36, 2-[(1R)-2-[4-(1-{2,6-dimethyl-2H-pyrazolo[3,4-b]pyridin-5-yl)-5-methyl-4-(propan-2-yl)-1H-pyrazol-3-yl)-2H-indazol-2-yl]-1-phenylethoxy]-N-methylacetamide]",24
4,"Cc1nc2nn(CCO)cc2cc1-n1nc(-c2cccc3nn(C[C@H](O)c4ccccc4)cc23)c(C(C)C)c1C [Example 37, (1R)-2-(4-{1-[2-(2-hydroxyethyl)-6-methyl-2H-pyrazolo[3,4-b]pyridin-5-yl]-5-methyl-4-(propan-2-yl)-1H-pyrazol-3-yl}-2H-indazol-2-yl)-1-phenylethan-1-ol]",27
5,"Cc1nc2nn(CCN(C)C)cc2cc1-n1nc(-c2cccc3nn(C[C@H](O)c4ccccc4)cc23)c(C(C)C)c1C [Example 39, (1R)-2-[4-(1-{2-[2-(dimethylamino)ethyl]-6-methyl-2H-pyrazolo[3,4-b]pyridin-5-yl}-5-methyl-4-(propan-2-yl)-1H-pyrazol-3-yl)-2H-indazol-2-yl]-1-phenylethan-1-ol]",25
6,"Cc1nc2nn(CCCN3CCC(F)(F)C3)cc2cc1-n1nc(-c2cccc3nn(C[C@H](O)c4ccccc4)cc23)c(C(C)C)c1C [Example 40, (1R)-2-[4-(1-{2-[3-(3,3-difluoropyrrolidin-1-yl)propyl]-6-methyl-2H-pyrazolo[3,4-b]pyridin-5-yl}-5-methyl-4-(propan-2-yl)-1H-pyrazol-3-yl)-2H-indazol-2-yl]-1-phenylethan-1-ol]",27
7,"Cn1cc2cc(-c3nc(-c4cccc5nn(C[C@H](O)c6ccc(OCCC(C)(C)O)cc6)cc45)c(C4CC4)n3C)c(C3CC3)nc2n1 [Example 41, 4-{4-[(1R)-2-[4-(5-cyclopropyl-2-{6-cyclopropyl-2-methyl-2H-pyrazolo[3,4-b]pyridin-5-yl}-1-methyl-1H-imidazol-4-yl)-2H-indazol-2-yl]-1-hydroxyethyl]phenoxy}-2-methylbutan-2-ol]",30
8,"CNCc1nc2nn(C)cc2cc1-n1nc(-c2cccc3nn(C[C@H](O)c4ccccc4)cc23)c(C(C)C)c1C [Example 42, (1R)-2-[4-(5-methyl-1-{2-methyl-6-[(methylamino)methyl]-2H-pyrazolo[3,4-b]pyridin-5-yl}-4-(propan-2-yl)-1H-pyrazol-3-yl)-2H-indazol-2-yl]-1-phenylethan-1-ol]",26
9,"Cc1nc2nn(C)cc2cc1-n1nc(-c2cccc3nn(C[C@H](O)c4ccc(F)c(F)c4)cc23)c(C(C)C)c1C [Example 44, (1R)-1-(3,4-difluorophenyl)-2-[4-(1-{2,6-dimethyl-2H-pyrazolo[3,4-b]pyridin-5-yl}-5-methyl-4-(propan-2-yl)-1H-pyrazol-3-yl)-2H-indazol-2-yl]ethan-1-ol]",26
10,"Cc1nc2nn(CCCCN3CCN(C)CC3)cc2cc1-n1nc(-c2cccc3nn(C[C@H](O)c4ccccc4)cc23)c(C(C)C)c1C [Example 45, (1R)-2-[4-(5-methyl-1-{6-methyl-2-[4-(4-methylpiperazin-1-yl)butyl]-2H-pyrazolo[3,4-b]pyridin-5-yl}-4-(propan-2-yl)-1H-pyrazol-3-yl)-2H-indazol-2-yl]-1-phenylethan-1-ol]",27
